From patent US20230338564A1, “NEODEGRADER CONJUGATES” (Orum Therapeutics, Inc., priority 2020, published 2023) come the findings set out here.

Assay [1] deals with SK-BR-3 breast cancer cell line. Nature of the assay: In vitro antiproliferation assay, General Procedure 1 (WST-8). Type of assay: cell-based. Particulars: SK-BR-3 cells; neoDegrader conjugates (DAR 8) versus comparators; FIGS. 7 and 8. As to the method: (§1) The ability of neoDegrader conjugates to inhibit cell growth was measured using in vitro anti-proliferation assay. […] Conjugates were diluted in complete cell growth medium using 4-fold serial dilutions and 100 µL was added per well. […] Viability of remaining cells was determined by colorimetric WST-8 assay (Dojindo Molecular Technologies, Inc., Rockville, MD, US). WST-8 was added to 10% of the final volume and plates were incubated at 37° C. in a humidified 5% CO2 incubator for 2-4 hours. Plates were analyzed by measuring the absorbance at 450 nm (A450) in a multi-well plate reader. Background A450 absorbance of wells with media and WST-8 only was subtracted from all values. The percent viability was calculated by dividing each treated sample value by the average value of wells with untreated cells. The percent viability value was plotted against the test sample concentration in a semi-log plot for each treatment. IC50 values were calculated automatically.

Assay [2] concerns NCI-N87 gastric cancer cell line. The description is as above. It counts as cell-based. Particulars: NCI-N87 cells; neoDegrader conjugates (DAR 8) versus comparators; FIGS. 16 and 17. The procedure:
as §1

The subject of a further assay is ML-2 cell line. Nature of the assay: In vitro antiproliferation assay, General Procedure 2 (CCK-8). It counts as cell-based. The conditions noted are these: Homo sapiens, ML-2; Acute myelomonocytic leukemia; read-out: IC50, ML-2. The text has this: (§2) Cell Culture: Cell lines were obtained from the American Type Culture Collection (ATCC, Manassas, VA, USA) or Deutsche Sammlung von Mikroorganismen und Zellkulturen (DSMZ, Braunschweig, Germany) and maintained according to the culturing conditions specified by ATCC or DSMZ. Cells were thawed out and maintained in culture for at least two passages before proceeding with experimental conditions.
(§3) Cytotoxicity assays: For adherent cell lines, the cells were dissociated with enzyme-free PBS-based cell dissociation buffer (Gibco, USA) and plated on tissue culture treated 96-well flat bottom polystyrene plates (Costar, Corning, USA) at appropriate cell densities depending on doubling time of the cells. 18 hours after plating, cells were treated with test articles at appropriate concentrations starting at 100 nM and diluted in 4-fold serial dilutions. For suspension cell lines, the cells were seeded on the same day of treatment and cells were treated as described above. Adherent cells were treated for 5 days and suspension cells were treated for 3 days. Cell proliferation was assessed using the Cell Counting Kit-8 (CCK-8, Dojindo Laboratories, Japan) and measurements were obtained using the Promega GloMax Discover plate reader (Promega, USA). Data were analyzed using GraphPad Prism software (GraphPad Software, San Diego, CA). All data points were obtained from technical triplicates and the experiments were validated using three biological replicates.

A further assay has as its system THLE2 cell line. The description is as above. Type of assay: cell-based. Particulars: THLE-2; Human liver normal.
Text: as §2, §3

For the next assay, the system named is THP-1 cell line. The assay is described as above. Type of assay: cell-based. The conditions noted are these: Homo sapiens, AML.
Text: as §2, §3

For another assay, the system named is OCI-AML2 cell line. The assay is described as above. Type of assay: cell-based. The conditions noted are these: Homo sapiens, OCI-AML2; Acute myeloid leukemia; read-out: IC50, OCI-AML2.
Text: as §2, §3

Another assay deals with LOVO cell line. The assay is described as above. Type of assay: cell-based. Particulars: Homo sapiens, Colon.
Text: as §2, §3

Another assay has as its system HL-60 cell line. Described as above. The conditions noted are these: Homo sapiens, HL-60; AML; read-out: IC50, HL-60. Type of assay: cell-based.
Text: as §2, §3

The next assay has as its system RPMI7951 cell line. The assay is described as above. It counts as cell-based. Particulars: Homo sapiens, RPMI-7951; Skin.
Text: as §2, §3

For a further assay, the system named is OCI-M1 cell line. The description is as above. Type of assay: cell-based. Particulars: Acute myeloid leukemia.
Text: as §2, §3

The subject of a further assay is JHUEM3 cell line. The description is as above. Type of assay: cell-based. The conditions noted are these: Endometrial.
Text: as §2, §3

For a further assay, the system named is MV4-11 cell line. The description is as above. Type of assay: cell-based. The conditions noted are these: Homo sapiens, MV4-11; Biphenotypic B myelomonocytic leukemia; read-out: IC50, MV4-11.
Text: as §2, §3

In another assay the test system is PL-21 cell line. The description is as above. The conditions noted are these: Acute myeloid leukemia. Type of assay: cell-based.
Text: as §2, §3

Another assay deals with SKOV3 cell line. The description is as above. It counts as cell-based. The conditions noted are these: Homo sapiens, SK-OV-3; Ovarian.
Text: as §2, §3

Another assay has as its system AGS cell line. Described as above. Particulars: Homo sapiens, Gastric. Type of assay: cell-based.
Text: as §2, §3

The test system of a further assay is Daudi cell line. The assay is described as above. It counts as cell-based. The conditions noted are these: Homo sapiens, NHL.
Text: as §2, §3

A further assay concerns SK-BR-3 cell line. The description is as above. Type of assay: cell-based. The conditions noted are these: Homo sapiens, Breast, read-out: IC50, SKBR3.
Text: as §2, §3

Another assay deals with OCI-AML4 cell line. Described as above. It counts as cell-based. The conditions noted are these: Acute myeloid leukemia; read-out: IC50, OCI-AML4.
Text: as §2, §3

In the next assay the test system is SNU182 cell line. Described as above. It counts as cell-based. The conditions noted are these: Homo sapiens, SNU-182; Liver.
Text: as §2, §3

For another assay, the system named is SU-DHL-8 cell line. The description is as above. Type of assay: cell-based. The conditions noted are these: Homo sapiens, NHL.
Text: as §2, §3

The next assay relates to CMK cell line. The assay is described as above. It counts as cell-based. The conditions noted are these: Homo sapiens, Acute megakaryocytic leukemia.
Text: as §2, §3

In another assay the test system is SKM-1 cell line. The description is as above. The conditions noted are these: Homo sapiens, SKM-1; Acute myeloid leukemia; read-out: IC50, SKM-1. Type of assay: cell-based.
Text: as §2, §3

The next assay concerns BT-474 cell line. Described as above. The conditions noted are these: Homo sapiens, Breast, read-out: IC50, BT474. It counts as cell-based.
Text: as §2, §3

The subject of the next assay is Molp8 cell line. The description is as above. It counts as cell-based. The conditions noted are these: Homo sapiens, MOLP-8; MM.
Text: as §2, §3

In the next assay the test system is KE39 cell line. The assay is described as above. It counts as cell-based. The conditions noted are these: Gastric.
Text: as §2, §3

Another assay concerns MOLM13 cell line. Described as above. It counts as cell-based. Particulars: Homo sapiens, MOLM-13; AML; read-out: IC50, MOLM13.
Text: as §2, §3

Another assay has as its system NB-4 cell line. The assay is described as above. It counts as cell-based. The conditions noted are these: Homo sapiens, Acute promyelocytic leukemia.
Text: as §2, §3

The next assay relates to OCI-M2 cell line. Described as above. The conditions noted are these: Acute myelocytic leukemia. Type of assay: cell-based.
Text: as §2, §3

The subject of another assay is U251MG cell line. The description is as above. It counts as cell-based. Particulars: Homo sapiens, U-251; Brain.
Text: as §2, §3

Another assay deals with EOL-1 cell line. The assay is described as above. Type of assay: cell-based, human. The conditions noted are these: Homo sapiens, EOL1; Acute myeloid leukemia; read-out: IC50, EOL-1.
Text: as §2, §3

The subject of assay [3] is BT-474 breast cancer cell line. Briefly: In vitro antiproliferation assay, General Procedure 1 (WST-8). Type of assay: cell-based. Particulars: Homo sapiens, BT-474, read-out: IC50, BT-474, conjugates DAR 8, comparators DAR not given. As to the method: as §1
Assay [4] concerns Ramos (non-Hodgkins lymphoma) cell line. Described as above. Type of assay: cell-based. The conditions noted are these: Ramos cells; rituximab neoDegrader conjugates versus comparators; FIG. 13. As to the method: as §1
Assay [5] relates to HL-60 (acute myeloid leukemia) cell line. The assay is described as above. It counts as cell-based. The conditions noted are these: AML; conjugates DAR 8, Mylotarg DAR not given. As to the method: as §1

As to Pertuzumab [reference compound], the “anti-proliferative activity compared, in words” value in assay [1] and in assay [2] was “significantly less active” throughout.
Usually IC50 stands for the point on the concentration scale where inhibition reaches its midpoint. For the molecule `O=C1CCC(N2Cc3cc(CNC(=O)Nc4ccc(CCO)c(Cl)c4)ccc3C2=O)C(=O)N1` (stereo not drawn) [Compound P3, 1-(3-chloro-4-(2-hydroxyethyl)phenyl)-3-((2-(2,6-dioxopiperidin-3-yl)-1-oxoisoindolin-5-yl)methyl)urea], the IC50 in the assay on ML-2 cell line worked out at 0.587 nM; with THLE2 cell line it was 59.9 nM; in the assay with THP-1 cell line, 65 nM; in the assay on OCI-AML2 cell line, 29.1 nM; with LOVO cell line, 750 nM; in the assay with HL-60 cell line, 3.02 nM. The IC50 amounted to 26 nM with RPMI7951 cell line; 104 nM in the assay on OCI-M1 cell line; 37.4 nM in the assay with JHUEM3 cell line; 0.783 nM with MV4-11 cell line; 2.09 nM with PL-21 cell line; 99.7 nM in the assay on SKOV3 cell line. Moreover, the half-maximal inhibitory concentration (IC50) stood at 650 nM with AGS cell line; 9.17 nM in the assay on Daudi cell line; 35 nM in the assay with SK-BR-3 cell line; 7 nM in the assay on OCI-AML4 cell line; 8.86 nM with SNU182 cell line; 18.4 nM in the assay with SU-DHL-8 cell line. In addition, the IC50 was found to be 12.3 nM in the assay with CMK cell line; 1.89 nM in the assay with SKM-1 cell line; 6.37 nM with BT-474 cell line; 6.63 nM in the assay on Molp8 cell line; 650 nM with KE39 cell line; 8.5 nM in the assay with MOLM13 cell line. Besides, the concentration for half-maximal inhibition (IC50) in the assay on NB-4 cell line amounted to 2.2 nM; with OCI-M2 cell line, 21.1 nM; in the assay on U251MG cell line, 35.8 nM; in the assay on EOL-1 cell line, 0.733 nM.
As for `CNc1ccccc1NC(=O)NCc1ccc2c(c1)CN(C1CCC(=O)NC1=O)C2=O` (stereo not drawn) [Compound P4, 3-[[2-(2,6-dioxopiperidin-3-yl)-1-oxo-3H-isoindol-5-yl]methyl]-1-[2-(methylamino)phenyl]urea], the IC50 in the assay on ML-2 cell line was 1.27 nM; in the assay on THLE2 cell line, 6.27 nM; in the assay on THP-1 cell line, 85 nM; in the assay on OCI-AML2 cell line, over 1000 nM; in the assay on LOVO cell line, 119 nM; in the assay with HL-60 cell line it was 5.45 nM. The IC50 in the assay on RPMI7951 cell line turned out to be 30.2 nM; in the assay on OCI-M1 cell line, 124 nM; in the assay with JHUEM3 cell line, 58.6 nM; with MV4-11 cell line, 1.91 nM; in the assay on PL-21 cell line it was 2.28 nM; with SKOV3 cell line, 138 nM. In addition, the IC50 in the assay on AGS cell line is 650 nM; in the assay with Daudi cell line it was 14.3 nM; in the assay with SK-BR-3 cell line, 64.6 nM; in the assay on OCI-AML4 cell line it was 16.9 nM; in the assay on SNU182 cell line, 13 nM; in the assay with SU-DHL-8 cell line it was 19.8 nM. For the same molecule, the IC50 in the assay on CMK cell line came to 1000 nM; with SKM-1 cell line, 3.77 nM; with BT-474 cell line, 2.9 nM; with Molp8 cell line it was 7.42 nM; with KE39 cell line, 119 nM; in the assay with MOLM13 cell line it was 9.5 nM. In addition, the 50% inhibitory concentration (IC50) with NB-4 cell line was determined as 2.63 nM; with OCI-M2 cell line, 20.9 nM; in the assay with U251MG cell line, 46 nM; in assay [3], 2.9 nM; with EOL-1 cell line, 1.88 nM. Besides, in assay [1], the “anti-proliferative activity compared, in words” value is on record as “significantly less active”. Further, the “antiproliferative activity compared, in words” value in assay [4] was “less active”.

B1: Lintuzumab IgG1-Compound (Ia) (conjugate, chains of the INN, looked up)
VH: QVQLVQSGAEVKKPGSSVKVSCKASGYTFTDYNMHWVRQAPGQGLEWIGYIYPYNGGTGYNQKFKSKATITADESTNTAYMELSSLRSEDTAVYYCARGRPAMDYWGQGTLVTVSS
VL: DIQMTQSPSSLSASVGDRVTITCRASESVDNYGISFMNWFQQKPGKAPKLLIYAASNQGSGVPSRFSGSGSGTDFTLTISSLQPDDFATYYCQQSKEVPWTFGQGTKVEIK
modifications: IgG1 conjugated to Compound (Ia)
Regarding B1, half-maximal inhibition in [5] (IC50) was put at 0.012 nM.

B2: Lintuzumab IgG1-Compound (Id) (conjugate, chains of the INN, looked up)
VH: QVQLVQSGAEVKKPGSSVKVSCKASGYTFTDYNMHWVRQAPGQGLEWIGYIYPYNGGTGYNQKFKSKATITADESTNTAYMELSSLRSEDTAVYYCARGRPAMDYWGQGTLVTVSS
VL: DIQMTQSPSSLSASVGDRVTITCRASESVDNYGISFMNWFQQKPGKAPKLLIYAASNQGSGVPSRFSGSGSGTDFTLTISSLQPDDFATYYCQQSKEVPWTFGQGTKVEIK
modifications: IgG1 conjugated to Compound (Id)
For the molecule B2, the IC50 in assay [5] was over 0.05 nM.
